According to PMC6274398, “Three Novel Triterpenoids from Taraxacum officinale Roots” (Molecules, 2016):
Where two headings read alike, the source gives them in different places.

What was measured:
[1] = test system: NO production in RAW 264.7 mouse macrophages stimulated by lipopolysaccharide (LPS); assay: Inhibitory assay of NO production (Griess) in LPS-stimulated RAW264.7 cells; format: cell-based; settings: for IC50 / activity at 1 µM / activity at 3 µM / activity at 10 µM / activity at 30 µM: Mus musculus; for IC50: read-out: IC50 (inhibition of NO production); for activity at 1 µM / activity at 3 µM / activity at 10 µM / activity at 30 µM: read-out: Produced NO %; for NO inhibitory activity (in words): 1–30 μM tested
Method: An inhibitory assay of NO production was examined in accordance with a previously reported method with minor modifications. Briefly, RAW264.7 cells (5 × 10^4 cells in 100 μL) were seeded on a 96-well microplate and incubated for 24 h. DMEM-containing test samples (100 μL total volume, final concentration of 30, 10, 3, or 1 μM) dissolved in DMSO (final concentration 0.2%) and LPS (final concentration of 5 μg/mL) was added. After being treated for 24 h, the supernatant of the culture medium was transferred to another 96-well microplate, and 50 μL of 0.15% N-(1-naphtyl)ethylenediamine in H2O and 1.5% sulfanilamide in 7.5% phosphoric acid were then added. After being incubated for 30 min, absorbance in each well was read at 570 nm using a microplate reader. The optical density of vehicle control cells was assumed to be 100%

[2] = test system: RAW264.7 cells; assay: RAW264.7 cell proliferation / cell viability (MTT); format: cell-based, mouse; settings: for Cell Viavility %: 24 h, MTT, vs DMSO (100%), mean ± S.E., n=4
Method: RAW264.7 cell proliferation was examined in accordance with a previously reported method. Briefly, RAW264.7 cells (5 × 10^4 cells in 100 μL) were seeded on a 96-well microplate and incubated for 24 h. Dulbecco's modified eagle's medium (DMEM)-containing test samples (100 μL total volume, final concentration of 30, 10, 3, or 1 μM) dissolved in dimethyl sulfoxide (DMSO, final concentration 0.2%) was added. After being treated for 24 h, thiazolyl blue tetrazolium bromide (MTT) solution was added. After a 3-h incubation, 20% sodium dodecyl sulfate in 0.1 M HCl was added to dissolve the formazan produced in the cells. Absorbance in each well was read at 570 nm using a microplate reader. The optical density of vehicle control cells was assumed to be 100%.

[3] = RAW264.7, 1 μM, LPS 5 μg/mL, 24 h, vs DMSO (100%), mean ± S.E., n=4
[4] = RAW264.7, 3 μM, LPS 5 μg/mL, 24 h, vs DMSO (100%), mean ± S.E., n=4
[5] = RAW264.7, 10 μM, LPS 5 μg/mL, 24 h, vs DMSO (100%), mean ± S.E., n=4
[6] = RAW264.7, 30 μM, LPS 5 μg/mL, 24 h, vs DMSO (100%), mean ± S.E., n=4

Row | IC50 ([1]; LPS-stimulated RAW264.7, 24 h) [µM] | Structure (SMILES) | IC50 ([1]; RAW264.7, 24 h) [µM] | activity at 1 µM ([1]; RAW264.7, 24 h) [%] | activity at 3 µM ([1]; RAW264.7, 24 h) [%] | activity at 10 µM ([1]; RAW264.7, 24 h) [%] | activity at 30 µM ([1]; RAW264.7, 24 h) [%] | Cell Viavility % ([2]; 1 μM) | Cell Viavility % ([2]; 3 μM) | Cell Viavility % ([2]; 10 μM) | Cell Viavility % ([2]; 30 μM) | activity at 1 µM [1, 3] [%] | activity at 3 µM [1, 4] [%] | activity at 10 µM [1, 5] [%] | activity at 30 µM [1, 6] [%] | melting point [°C] | NO inhibitory activity (in words) [1] | Cytotoxicity at effective concentration (in words) ([2]; at 1–10 μM) | Cytotoxicity (in words) ([2]; at higher concentrations) | Cytotoxicity at effective concentration (in words) ([2]; at 1 and 3 μM) | Cytotoxicity (in words) ([2]; at 1–30 μM)
1 |  | CO[C@H]1C[C@]2(C)CC[C@]3(C)[C@H](CC[C@@H]4[C@@]5(C)CC[C@H](OC(C)=O)C(C)(C)[C@@H]5CC[C@]43C)[C@@]23O[C@@]13C(C)C [Compound 1, 18β,19β-epoxy-21β-methoxylupan-3β-yl acetate] | > 30 | 94.8 ± 1.2 | 101.4 ± 0.7 | 90.5 ± 2.4 | 95.7 ± 4.6 | (95.0 ± 0.7) % | (104.2 ± 1.3) % | (102.6 ± 0.7) % | (107.4 ± 2.0) % |  |  |  |  |  |  |  |  |  | 
2 |  | CC(=O)O[C@H]1CC[C@]2(C)[C@H]3CC[C@@]4(C)[C@H]([C@H](C)CCC=C(C)C)CC[C@]4(C)C3=CC(=O)[C@H]2C1(C)C [Compound 3, 3β-acetoxyeupha-7,24-dien-6-one] | > 30 | 101 ± 2.6 | 93.7 ± 1.4 | 93.3 ± 1.6 | 93.1 ± 0.9 | (100.0 ± 1.4) % | (94.6 ± 8.2) % | (104.2 ± 0.7) % | (103.8 ± 1.0) % |  |  |  |  | 140 to 143 |  |  |  |  | 
3 |  | CC(=O)O[C@H]1CC[C@]2(C)[C@H]3CC[C@@H]4[C@@]56O[C@]5(C(C)C)[C@@H](O)C[C@]6(C)CC[C@@]4(C)[C@]3(C)CC[C@H]2C1(C)C [Compound 4, 18β,19β-epoxy-21β-hydroxylupan-3β-yl acetate] | 16.9 | 83.6 ± 0.9 | 76.8 ± 2.5 | 66 ± 0.8 | 35.4 ± 2.2 | (98.4 ± 0.9) % | (97.9 ± 0.3) % | (92.7 ± 1.0) % | (49.5 ± 0.7) % |  |  |  |  |  | exhibited NO inhibitory activities | did not exhibit cytotoxicity | some cytotoxicity |  | 
4 |  | CC(=O)O[C@H]1CC[C@]2(C)[C@H]3CC[C@@H]4C5=C(C(C)C)C(=O)C[C@]5(C)CC[C@@]4(C)[C@]3(C)CC[C@H]2C1(C)C [Compound 5, 21-oxolup-18-en-3β-yl acetate] | > 30 | 110 ± 5.2 | 106 ± 3.2 | 94.9 ± 4.3 | 92.7 ± 4.7 | (98.4 ± 3.1) % | (94.8 ± 3.9) % | (90.7 ± 1.8) % | (88.9 ± 2.3) % |  |  |  |  |  |  |  |  |  | 
5 |  | C=C(C)[C@@H]1CC[C@]2(CO)CC[C@]3(C)[C@H](CC[C@@H]4[C@@]5(C)CC[C@H](O)C(C)(C)[C@@H]5CC[C@]43C)[C@@H]12 [Compound 6, betulin] | 17 | 83.4 ± 1.5 | 75 ± 3.2 | 65.4 ± 0.5 | 36.3 ± 0.6 | (99.8 ± 0.1) % | (93.7 ± 1.1) % | (76.7 ± 0.7) % | (66.7 ± 1.2) % |  |  |  |  |  | exhibited NO inhibitory activities |  | some cytotoxicity | did not exhibit cytotoxicity | 
6 | > 30 | CC(C)C1=CC(=O)C(C)CCC2(C)C(CCC3C4(C)CCC(=O)C(C)(C)C4CCC32C)C1=O (stereo not drawn) [Compound 7, officinatrione] |  |  |  |  |  | (98.3 ± 2.6) % | (103.0 ± 2.4) % | (99.7 ± 3.8) % | (99.8 ± 3.0) % | 101 ± 1 | 101 ± 2.5 | 89.8 ± 1.1 | 66.8 ± 0.8 |  | exhibited NO inhibitory activities |  |  |  | no cytotoxicity
7 | > 30 | CO[C@@H]1C=C2[C@@H]3CC(C)(C)CC[C@]3(C)CC[C@@]2(C)[C@]2(C)CC[C@H]3C(C)(C)C(=O)CC[C@]3(C)[C@@H]12 [Compound 8, 11α-methoxyolean-12-en-3-one] |  |  |  |  |  | (99.9 ± 0.1) % | (100.4 ± 0.1) % | (100.5 ± 0.2) % | (103.0 ± 1.6) % | 102.9 ± 0.7 | 105 ± 3.1 | 90.2 ± 7.1 | 64.1 ± 3.3 |  | exhibited NO inhibitory activities |  |  |  | no cytotoxicity
8 |  | CC(C)=CCC[C@@H](C)[C@@H]1CC[C@]2(C)C3=CC[C@H]4C(C)(C)C(=O)CC[C@]4(C)[C@H]3CC[C@@]12C [Compound 9, eupha-7,24-dien-3-one] | > 30 | 98.4 ± 3.9 | 100 ± 1.6 | 109 ± 2 | 108 ± 4.7 | (99.3 ± 0.2) % | (98.8 ± 0.2) % | (99.1 ± 0.4) % | (99.9 ± 0.6) % |  |  |  |  |  |  |  |  |  | 
9 |  | C=C(C)C(=O)CC[C@@H](C)[C@@H]1CC[C@]2(C)C3=CC[C@H]4C(C)(C)[C@@H](OC(C)=O)CC[C@]4(C)[C@H]3CC[C@@]12C [Compound 10] | 18.4 | 93.8 ± 1.8 | 81.6 ± 3.7 | 67.5 ± 2.4 | 37 ± 1.8 | (108.3 ± 4.7) % | (100.4 ± 0.2) % | (100.2 ± 0.1) % | (2.6 ± 0.4) % |  |  |  |  |  | exhibited NO inhibitory activities | did not exhibit cytotoxicity | some cytotoxicity |  | 
10 | 23.9 | CNC(=N)NCCC[C@H](N)C(=O)O [L-NMMA, N^G-monomethyl-L-arginine acetate, reference compound] |  |  |  |  |  | (101.5 ± 0.9) % | (101.9 ± 0.4) % | (98.5 ± 0.9) % | (109.4 ± 0.5) % | 93.3 ± 2.2 | 91.4 ± 0.8 | 68.9 ± 4.5 | 43.1 ± 1.1 |  |  |  |  |  | 

Row | Structure (SMILES) | IC50 ([1]; LPS-stimulated RAW264.7, 24 h) [µM] | IC50 ([1]; RAW264.7, 24 h) [µM] | activity at 1 µM ([1]; RAW264.7, 24 h) [%] | activity at 3 µM ([1]; RAW264.7, 24 h) [%] | activity at 10 µM ([1]; RAW264.7, 24 h) [%] | activity at 30 µM ([1]; RAW264.7, 24 h) [%] | Cell Viavility % ([2]; 1 μM) | Cell Viavility % ([2]; 3 μM) | Cell Viavility % ([2]; 10 μM) | Cell Viavility % ([2]; 30 μM) | activity at 1 µM [1, 3] [%] | activity at 3 µM [1, 4] [%] | activity at 10 µM [1, 5] [%] | activity at 30 µM [1, 6] [%] | melting point [°C] | NO inhibitory activity (in words) [1] | Cytotoxicity at effective concentration (in words) ([2]; at 1–10 μM) | Cytotoxicity (in words) ([2]; at higher concentrations) | Cytotoxicity at effective concentration (in words) ([2]; at 1 and 3 μM) | Cytotoxicity (in words) ([2]; at 1–30 μM)
11 | CC(=O)O[C@H]1CC[C@]2(C)[C@H]3CC[C@@]4(C)[C@@H]5[C@@H](C)[C@H](C)CC[C@]5(C)CC[C@]4(C)C3=CC(=O)[C@H]2C1(C)C [Compound 2, 3β-acetoxybauer-7-en-6-one] | > 30 |  |  |  |  |  | (100.0 ± 1.3) % | (102.2 ± 0.3) % | (105.1 ± 0.3) % | (105.7 ± 2.0) % | 95.6 ± 2.7 | 101 ± 2.6 | 86.5 ± 1.4 | 71.4 ± 1.8 | 110 to 112 |  |  |  |  | 
